Results taken from US20250195483A1, “SPIRO PIPERIDINE DERIVATIVES AS INHIBITORS OF APOL1 AND METHODS OF USING SAME” (Vertex Pharmaceuticals Incorporated, priority 2022, published 2025).

Target: T1, APOL1 (Homo sapiens, UniProt O14791)
T1 sequence (O14791 1-398): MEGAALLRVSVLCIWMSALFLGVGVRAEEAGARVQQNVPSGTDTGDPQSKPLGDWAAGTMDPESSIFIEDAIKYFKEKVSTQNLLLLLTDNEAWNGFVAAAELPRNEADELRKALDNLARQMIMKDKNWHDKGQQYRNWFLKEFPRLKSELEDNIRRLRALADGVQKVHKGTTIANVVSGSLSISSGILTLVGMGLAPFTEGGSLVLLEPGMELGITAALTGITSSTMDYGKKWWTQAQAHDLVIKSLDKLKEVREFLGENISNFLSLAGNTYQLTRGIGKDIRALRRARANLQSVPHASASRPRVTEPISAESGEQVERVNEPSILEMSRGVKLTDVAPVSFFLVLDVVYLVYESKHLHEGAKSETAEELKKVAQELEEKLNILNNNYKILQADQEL
Experiment: MultiTox-Fluor Multiplex Cytotoxicity Assay, tet-inducible APOL1 T-REx-HEK293 cells (G0, G1 or G2 clone not specified for Table 20)
Assay type: cell-based
Settings: tet-induced, 24 hours with compound, ratio of dead to live cells, read-out: IP50 (i.e., IC50 for cell proliferation)
In short: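 HEK293 T-REx cells with tet-inducible APOL1 G0, G1 or G2 clone, 23,400/well, treated with tetracycline plus compound (top 10 μM, 10-point 3-fold, duplicate) for 24 h at 37° C. MultiTox-Fluor dead/live fluorescence ratio, normalized to no-tet (100% viability) and 50 ng/mL tet (0% viability) controls, then curve-fitted.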

Structure (SMILES)	IC50 [µM]
C[C@H]1C[C@@]2(CCN1Cc1cccnc1)OCCc1ccc(Cl)cc12 [Compound 114]	≤ 0.05
Cn1cc(CN2CCC3(CC2)NCc2ccc(Cl)cc23)cn1 [Compound 311, 6-chloro-1′-[(1-methylpyrazol-4-yl)methyl]spiro[isoindoline-1,4′-piperidine]]	≥ 0.5
CS(=O)(=O)CCn1cc(CN2CCC3(CC2)C(=O)N(CCO)c2ccc(Cl)cc23)cn1 [Compound 45, 5-chloro-1-(2-hydroxyethyl)-1′-[[1-(2-methylsulfonylethyl)pyrazol-4-yl]methyl]spiro[indoline-3,4′-piperidine]-2-one]	0.05 to 0.5
C[C@H]1C[C@@]2(CCN1Cc1cncnc1)OCCc1ccc(Cl)cc12 [Compound 119]	≤ 0.05
C[C@H]1C[C@@]2(CCN1Cc1cn(C(C)(CO)CO)nn1)OCCc1ccc(Cl)cc12 [Compound 153]	≥ 0.5
NC(=O)C1OC2(CCN(Cc3cnn(-c4cccc(C(F)(F)F)c4)c3)CC2)c2cc(Cl)ccc21 (stereo not drawn) [Compound 212, 5-chloro-1′-[[1-[3-(trifluoromethyl)phenyl]pyrazol-4-yl]methyl]spiro[1H-isobenzofuran-3,4′-piperidine]-1-carboxamide]	≤ 0.05
C[C@H]1C[C@@]2(CCN1Cc1cnn(CCO)c1)C(=O)Nc1ccc(Cl)cc12 [Compound 75]	0.05 to 0.5
CCN1C(=O)C2(CCN(Cc3cnn(CCS(C)(=O)=O)c3)CC2)c2cc(Cl)ccc21 [Compound 48]	0.05 to 0.5
CS(=O)(=O)CCn1cc(CN2CCC3(CC2)C(=O)Nc2ccc(C(F)F)cc23)cn1 [Compound 33]	0.05 to 0.5
CC(C)(O)[C@@H](O)Cn1cc(CN2CCC3(CC2)OC(C(N)=O)c2ccc(Cl)cc23)cn1 (stereo partly drawn) [Compound 277, 5-chloro-1′-[[1-[(2S)-2,3-dihydroxy-3-methyl-butyl]pyrazol-4-yl]methyl]spiro[1H-isobenzofuran-3,4′-piperidine]-1-carboxamide]	≤ 0.05
C[C@H]1C[C@@]2(CCN1Cc1cn(Cc3ccc(C(N)=O)o3)nn1)OCCc1ccc(Cl)cc12 [Compound 172]	≤ 0.05
C[C@H]1C[C@@]2(CCN1Cc1cn(CC3(C(N)=O)CC3)nn1)OCCc1ccc(Cl)cc12 [Compound 188]	≤ 0.05
N#Cc1cc(CN2CCC3(CC2)C(=O)Nc2ccc(Cl)cc23)ccn1 [Compound 20]	≥ 0.5
CS(=O)(=O)CCn1cc(CN2CCC3(CC2)C(=O)N(Cc2ccccc2)c2ccc(OC(F)F)cc23)cn1 [Compound 86]	≥ 0.5
CCn1cc(CN2CC[C@]3(C[C@@H]2C)OCCc2ccc(Cl)cc23)cn1 [Compound 121]	≤ 0.05
N#Cc1ccc(CN2CCC3(CC2)C(=O)Nc2ccc(Cl)cc23)c(F)c1 [Compound 15]	≥ 0.5
Cc1cc(Cn2cc(CN3CC[C@]4(C[C@@H]3C)OCCc3ccc(Cl)cc34)nn2)cc(=O)[nH]1 [Compound 180]	0.05 to 0.5
Cc1ccc2c(c1)C1(CCN(Cc3cnn(C)c3)C(C)C1)OCC2 (stereo not drawn) [Compound 93]	≤ 0.05
Cn1cc(CN2CCC3(CC2)OCCc2ccccc23)cn1 [Compound 127]	≥ 0.5
CS(=O)(=O)CCn1cc(CN2CCC3(CC2)C(=O)N(C2COC2)c2ccc(Cl)cc23)cn1 [Compound 49]	0.05 to 0.5
O=C1Nc2ccc(CC(F)F)cc2C12CCN(Cc1cn[nH]c1)CC2 [Compound 35]	≥ 0.5
C[C@H]1C[C@@]2(CCN1Cc1cn(CC(O)CO)nn1)OCCc1ccc(Cl)cc12 (stereo partly drawn) [Compound 152]	≤ 0.05
CN1C(=O)C2(CCN(C[C@H]3C[C@@H](NC(=O)c4cc(C5CC5)no4)C3)CC2)c2cc(Cl)ccc21 [Compound 60, N-[3-[(5-chloro-1-methyl-2-oxo-spiro[indoline-3,4′-piperidine]-1′-yl)methyl]cyclobutyl]-3-cyclopropyl-isoxazole-5-carboxamide]	≥ 0.5
CCc1nnc(Cn2cc(CN3CC[C@]4(C[C@@H]3C)OCCc3ccc(Cl)cc34)nn2)o1 [Compound 161]	≤ 0.05

Structure (SMILES)	IC50 [µM]
CN1C(=O)C2(CCN(Cc3cn(CC(C)(CO)CO)nn3)CC2)c2cc(Cl)ccc21 [Compound 44]	≥ 0.5
COCn1cc(CN2CC[C@]3(C[C@@H]2C)OCCc2ccc(Cl)cc23)nn1 [Compound 155]	0.05 to 0.5
C[C@H]1C[C@@]2(CCN1Cc1cn(CCNS(=O)(=O)C3CC3)nn1)OCCc1ccc(Cl)cc12 [Compound 187]	≤ 0.05
Cc1cc(CN2CCC3(CC2)OC(C(N)=O)c2ccc(Cl)cc23)on1 (stereo not drawn) [Compound 258]	≥ 0.5
Cc1ccc(CN2CCC3(CC2)OC(C(N)=O)c2ccc(Cl)cc23)nn1 (stereo not drawn) [Compound 218]	≥ 0.5
Cn1cc(CN2CCC3(CC2)OCCc2ccc(C(F)(F)F)cc23)cn1 [Compound 128]	≥ 0.5
C[C@H]1C[C@@]2(CCN1Cc1cn(CC3CC(=O)N(C)C3)nn1)OCCc1ccc(Cl)cc12 (stereo partly drawn) [Compound 145]	0.05 to 0.5
Nc1ncc(CN2CCC3(CC2)C(=O)Nc2ccc(Cl)cc23)s1 [Compound 3]	0.05 to 0.5
CNC(=O)C1OC2(CCN(Cc3cnn(-c4ccccc4)c3)CC2)c2cc(C)ccc21 (stereo not drawn) [Compound 198]	≤ 0.05
N#Cc1ccc(CN2CCC3(CC2)OC(C(N)=O)c2ccc(Cl)cc23)cc1 (stereo not drawn) [Compound 217]	0.05 to 0.5
C[C@H]1C[C@@]2(CCN1Cc1c[nH]nn1)OCCc1ccc(Cl)cc12 [Compound 106]	≤ 0.05
NC(=O)C1OC2(CCN(Cc3cnn(C4CCS(=O)(=O)C4)c3)CC2)c2cc(Cl)ccc21 (stereo not drawn) [Compound 219]	≤ 0.05
NC(=O)C1OC2(CCN(Cc3ccc(S(N)(=O)=O)cc3F)CC2)c2cc(Cl)ccc21 (stereo not drawn) [Compound 243]	0.05 to 0.5
Cc1ccc2c(c1)[C@@]1(CCN(Cc3cnn(CC(C)(CO)CO)c3)[C@@H](C)C1)OCC2 [Compound 101]	0.05 to 0.5
C[C@H]1C[C@@]2(CCN1Cc1cnn(CC(C)(CO)CO)c1)OCCc1ccc(Cl)cc12 [Compound 115]	≤ 0.05
Cc1ccc2c(c1)[C@]1(CCN(Cc3cnn(C)c3)[C@@H](C)C1)OCC2 [Compound 91]	≤ 0.05
C[C@H]1C[C@@]2(CCN1Cc1cn(CC(=O)NCC3(C#N)CC3)nn1)OCCc1ccc(Cl)cc12 [Compound 171]	≤ 0.05
NC(=O)C1OC2(CCN(Cc3c[nH]c4ncncc34)CC2)c2cc(Cl)ccc21 (stereo not drawn) [Compound 229]	≥ 0.5
NC(=O)C1OC2(CCN(Cc3cnn4c3NCCC4)CC2)c2cc(Cl)ccc21 (stereo not drawn) [Compound 254]	≥ 0.5
C[C@H]1C[C@@]2(CCN1Cc1cn(Cc3nnc(N(C)C)[nH]3)nn1)OCCc1ccc(Cl)cc12 [Compound 185]	0.05 to 0.5
Cc1ncc(-n2cc(CN3CCC4(CC3)OC(C(N)=O)c3ccc(Cl)cc34)cn2)cn1 (stereo not drawn) [Compound 209, 5-chloro-1′-[[1-(2-methylpyrimidin-5-yl)pyrazol-4-yl]methyl]spiro[1H-isobenzofuran-3,4′-piperidine]-1-carboxamide]	≤ 0.05
CCc1ccc2c(c1)C1(CCN(Cc3cnn(CCS(C)(=O)=O)c3)CC1)C(=O)N2C [Compound 84]	≥ 0.5
C[C@H]1C[C@@]2(CCN1Cc1cn(CCCc3nc(=O)[nH][nH]3)nn1)OCCc1ccc(Cl)cc12 [Compound 160]	0.05 to 0.5
C[C@H]1C[C@@]2(CCN1Cc1cn(Cc3cc(=O)[nH]c(C4CC4)n3)nn1)OCCc1ccc(Cl)cc12 [Compound 163]	0.05 to 0.5
